This note sets out measurements from publication PMC6251916, “CKD-506, a novel HDAC6-selective inhibitor, improves renal outcomes and survival in a mouse model of systemic lupus erythematosus” (Scientific Reports, 2018).

In test [1] the test system is NZB/W F1 female mice. As to the kind of experiment: Murine SLE model: kidney histopathology (H&E, PAS, Masson trichrome). The test is classed as in vivo, mouse. The note with it: group CKD10. An excerpt:
Survival had been monitored until 42 weeks of age.
Kidneys were harvested from mice at the end of the study (at 43–44 weeks of age). For light microscopy, the tissues were fixed in 10% neutral buffered formalin, embedded in paraffin wax, sectioned at a thickness of 5 μm and stained with H&E (BBC Biochemical, Mount Vernon, WA, USA). Periodic acid/Schiff (PAS stain kit, BBC Biochemical) staining and Masson trichrome (BBC Biochemical) staining were used for the detection of […] and fibrosis, respectively. Inflammatory cell infiltration and mesangial proliferation were scored on a 4-point scale as 0 (none), 1+ (mild), 2+ (moderate), 3+ (moderate to severe) and 4+ (severe).

For test [2], the system named is acetylation of histone H4. As to the kind of experiment: Analysis of protein acetylation in human PBMC (western blot). The test is classed as cell-based. The following applies: 4 hr. The protocol:
(§1) Human peripheral blood mononuclear cells (PBMC) (IRB No. CKD-IRB-012) were seeded (1.0 × 10^6 cells/well) and cultured for 24 hr on 12-well plate before treatment of CKD-506 or LBH-589. The chemicals were treated for 4 hr. After harvesting cells, total protein extracts were prepared. The protein extracts were resolved in pre-made SDS-PAGE (NuPAGE® Bis-Tris Precast Gels, Invitrogen). Proteins were transferred onto polyvinylidene difluoride (PVDF) membrane and probed with the following antibodies; anti-acetyl α tubulin (1:5000, #5335, Cell Signaling Technology), α tubulin (1:2000, #2144, Cell Signaling Technology), anti-acetyl histone H4(1:5000, #8647, Cell Signaling Technology), anti-histone H4(1:1000, #2935S, Cell Signaling Technology), and anti-beta-actin (1:5000, #A5441, Sigma). The horseradish peroxidase-conjugated anti-rabbit IgG (1:5000, #7074S, Cell Signaling Technology) and anti-mouse IgG (1:5000, #7076 S, Cell Signaling Technology) were used as secondary antibodies. Acetylated proteins were visualized by chemiluminescence (RPN2235, GE healthcare) and detected by the Gel documentation system (ChemiDoc™, BioRad).

Test [3] relates to acetylation of α tubulin. The test is described as above. The test is classed as cell-based. The protocol: as §1
Test [4] has as its target T1, HDAC8 (Homo sapiens, UniProt Q9BY41).
T1 construct: purchased Reaction biology Corp. (Malvern, PA, USA)
T1 sequence (Q9BY41 1-377): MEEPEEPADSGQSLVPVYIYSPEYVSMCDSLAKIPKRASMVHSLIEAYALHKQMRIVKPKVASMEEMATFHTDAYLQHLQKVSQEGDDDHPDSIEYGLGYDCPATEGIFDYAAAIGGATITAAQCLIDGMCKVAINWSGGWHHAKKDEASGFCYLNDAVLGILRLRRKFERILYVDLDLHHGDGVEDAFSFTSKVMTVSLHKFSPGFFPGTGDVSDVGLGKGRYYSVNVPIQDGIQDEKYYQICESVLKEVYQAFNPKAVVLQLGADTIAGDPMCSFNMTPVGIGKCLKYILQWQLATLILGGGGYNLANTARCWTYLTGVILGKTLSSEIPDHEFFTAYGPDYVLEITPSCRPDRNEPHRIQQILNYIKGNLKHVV
As to the kind of experiment: HDAC panel assay (enzyme activity). In kind it is biochemical. The protocol:
(§2) HDAC panel assay was performed by Reaction biology Corp. (Malvern, PA, USA) according to their validated protocol. To evaluate the potency and selectivity of CKD-506, HDAC panel assay was carried out by Reaction biology Corp. Briefly, the deacetylation reaction was performed in 50 mM Tris-HCl pH 8.0, 137 mM NaCl, 2.7 mM KCl, 1 mM MgCl2, and 1 mg/ml bovine serum albumin (BSA) with RHK-K(Ac)-AMC as substrate. After the reaction, a fluorescence signal (Ex. 360 nm/Em. 460 nm) developed (~30 min.) by addition of an equal volume of 2 mM nicotinamide, 16 mg/mL trypsin in 50 mM Tris-HCl pH 8.0, 137 mM NaCl, 2.7 mM KCl, and 1 mM MgCl2.

Test [5] relates to other HDAC isoforms. As to the kind of experiment: HDAC panel assay (enzyme activity). In kind it is biochemical. The method, then:
as §2

Test [6] concerns the target T2, HDAC7 (Homo sapiens, UniProt Q8WUI4).
T2 construct: purchased Reaction biology Corp. (Malvern, PA, USA)
T2 sequence (Q8WUI4 1-952): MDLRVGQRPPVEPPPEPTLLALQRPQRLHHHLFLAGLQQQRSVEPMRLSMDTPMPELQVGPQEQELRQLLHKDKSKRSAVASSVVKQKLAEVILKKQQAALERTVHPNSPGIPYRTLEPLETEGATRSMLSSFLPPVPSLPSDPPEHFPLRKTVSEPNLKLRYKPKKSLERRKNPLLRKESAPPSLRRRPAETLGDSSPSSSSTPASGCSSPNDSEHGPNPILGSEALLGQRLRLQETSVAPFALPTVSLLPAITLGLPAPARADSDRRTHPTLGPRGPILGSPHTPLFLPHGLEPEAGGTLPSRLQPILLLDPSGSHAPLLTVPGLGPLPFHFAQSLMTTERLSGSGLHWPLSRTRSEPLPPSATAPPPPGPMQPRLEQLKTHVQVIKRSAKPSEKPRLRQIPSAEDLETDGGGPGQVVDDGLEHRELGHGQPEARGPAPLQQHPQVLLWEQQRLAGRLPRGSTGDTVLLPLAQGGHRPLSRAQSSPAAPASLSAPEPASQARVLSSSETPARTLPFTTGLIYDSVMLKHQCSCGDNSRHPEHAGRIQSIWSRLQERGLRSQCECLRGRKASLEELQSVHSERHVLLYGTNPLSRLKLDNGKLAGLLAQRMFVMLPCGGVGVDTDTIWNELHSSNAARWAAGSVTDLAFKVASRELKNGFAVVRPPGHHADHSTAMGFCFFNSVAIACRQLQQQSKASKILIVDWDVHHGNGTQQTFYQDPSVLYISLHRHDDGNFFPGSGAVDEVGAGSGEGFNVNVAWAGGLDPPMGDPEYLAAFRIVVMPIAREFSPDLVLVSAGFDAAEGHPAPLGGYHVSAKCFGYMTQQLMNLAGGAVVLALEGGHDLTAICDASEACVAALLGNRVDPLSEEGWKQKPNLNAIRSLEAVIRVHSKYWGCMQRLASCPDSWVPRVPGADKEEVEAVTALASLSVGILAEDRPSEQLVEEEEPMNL
As to the kind of experiment: HDAC panel assay (enzyme activity). In kind it is biochemical. The protocol:
as §2

Test [7] concerns the target T3, HDAC1 (Homo sapiens, UniProt Q13547).
T3 construct: purchased Reaction biology Corp. (Malvern, PA, USA)
As to the kind of experiment: HDAC panel assay (enzyme activity). The test is classed as biochemical. The method, then: as §2

In test [8] the target is T4, HDAC2 (Homo sapiens, UniProt Q92769).
T4 construct: purchased Reaction biology Corp. (Malvern, PA, USA)
As to the kind of experiment: HDAC panel assay (enzyme activity). In kind it is biochemical. The method, then: as §2

pIC50: −log10 of the molar value.

T4 sequence (Q92769 whole entry): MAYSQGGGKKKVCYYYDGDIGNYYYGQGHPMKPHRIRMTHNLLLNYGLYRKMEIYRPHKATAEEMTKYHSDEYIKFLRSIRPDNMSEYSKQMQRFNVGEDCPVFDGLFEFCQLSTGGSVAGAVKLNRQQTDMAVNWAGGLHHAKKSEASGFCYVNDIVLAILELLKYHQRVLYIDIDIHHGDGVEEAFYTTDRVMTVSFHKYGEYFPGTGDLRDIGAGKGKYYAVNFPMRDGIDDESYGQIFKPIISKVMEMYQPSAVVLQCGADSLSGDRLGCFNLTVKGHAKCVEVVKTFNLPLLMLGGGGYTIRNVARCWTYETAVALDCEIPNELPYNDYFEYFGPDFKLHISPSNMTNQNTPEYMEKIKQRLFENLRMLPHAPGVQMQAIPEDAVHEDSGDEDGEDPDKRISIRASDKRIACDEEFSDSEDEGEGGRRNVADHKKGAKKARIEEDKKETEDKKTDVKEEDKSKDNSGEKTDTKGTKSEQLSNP
T3 sequence (Q13547 whole entry): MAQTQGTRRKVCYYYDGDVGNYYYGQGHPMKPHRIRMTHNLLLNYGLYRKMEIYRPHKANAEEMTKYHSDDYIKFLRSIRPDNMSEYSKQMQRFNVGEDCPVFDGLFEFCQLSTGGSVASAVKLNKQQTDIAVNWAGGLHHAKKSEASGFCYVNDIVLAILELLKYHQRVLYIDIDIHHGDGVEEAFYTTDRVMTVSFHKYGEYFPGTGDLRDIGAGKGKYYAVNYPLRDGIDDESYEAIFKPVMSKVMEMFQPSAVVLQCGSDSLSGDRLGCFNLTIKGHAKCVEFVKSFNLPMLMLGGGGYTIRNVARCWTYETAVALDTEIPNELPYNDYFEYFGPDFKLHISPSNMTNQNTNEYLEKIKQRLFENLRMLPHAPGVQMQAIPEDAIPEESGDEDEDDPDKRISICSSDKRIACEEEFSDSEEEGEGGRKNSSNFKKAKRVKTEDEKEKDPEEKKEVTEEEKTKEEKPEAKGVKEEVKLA

Turning to CKD-506, the “Masson's trichrome staining of kidneys” value in test [1] is recorded as “fibrosis”. Also, the “Periodic acid-Schiff (PAS) staining of kidneys” value in test [1] was “dilated tubules and casts”. In test [1], the “histopathological evaluation of the kidneys (H&E)” value is “Large numbers of inflammatory cell infiltrations and mesangial proliferation”. Also, in test [2], the “effect on acetylation of histone H4” value is “without affecting”. Besides, the “acetylation of α tubulin, % of maximum acetylation” value in test [3] (at 100 nM, human PBMC) is listed as “about 85%”. Also, the IC90 in test [3] (read-out: IC90 for the induction of α tubulin acetylation) is about 100 nM. Moreover, the pIC50 in test [4], in test [6], in test [7] and in test [8] was 5.30 to 5.70 in each case. Besides, the “inhibition of enzyme activity of other HDAC isoforms” value in test [5] was “does not inhibit”.
